Experimental data from patent US20250108038A1 (priority 2023, published 2025).

Assays:
CYP1A2 = molecular target: T1, CYP1A2 (Homo sapiens, UniProt P05177); experiment: in vitro; details: both, microsomes, pH 7.4
T1 sequence (P05177 1-516): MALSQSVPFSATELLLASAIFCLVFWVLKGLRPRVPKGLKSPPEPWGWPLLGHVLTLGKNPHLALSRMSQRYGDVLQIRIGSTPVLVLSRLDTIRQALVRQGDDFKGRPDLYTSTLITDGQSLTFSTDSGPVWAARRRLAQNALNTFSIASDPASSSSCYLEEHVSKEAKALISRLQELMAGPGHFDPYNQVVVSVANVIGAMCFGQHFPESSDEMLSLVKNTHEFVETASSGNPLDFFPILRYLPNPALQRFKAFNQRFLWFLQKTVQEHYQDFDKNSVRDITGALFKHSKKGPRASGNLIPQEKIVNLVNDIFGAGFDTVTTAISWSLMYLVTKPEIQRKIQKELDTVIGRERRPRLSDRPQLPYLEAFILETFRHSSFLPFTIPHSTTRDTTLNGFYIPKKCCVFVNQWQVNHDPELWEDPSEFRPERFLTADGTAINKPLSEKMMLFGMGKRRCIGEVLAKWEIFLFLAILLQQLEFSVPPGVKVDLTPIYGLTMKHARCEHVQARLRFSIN

CYP3A4 = CYP3A4 (Homo sapiens, UniProt P08684); experiment: in vitro; details: both, pH 7.4, Inhibition at Highest Test Article Concentration
Wistar rats = experiment: Five Choice Serial Reaction Time Task, standard version (STD), repeated administration; type: in vivo, Wistar rat; design: Latency (Correct) / Latency (Incorrect): unit not given here; details: for Latency (Correct) / Latency (Incorrect) / Magazine Head Entries / Omissions / Reward Latency / Trials Completed: STD
Source text: The behavioral tasks utilized were three versions of the rat Five Choice Serial Reaction Time Task (5C-SRTT), the standard version of the task (STD) with a fixed stimulus duration and a fixed intertrial interval, the variable stimulus duration (vSD) and the variable intertrial interval (vITI) version. The principal readout parameters in each task were the % Hit and the % correct choices (measures of sustained attention) and three measures of inhibitory response control (premature, perseverative, and timeout responses), although a number of additional outcome measures were obtained (see under Methods and Results below).
Twenty-four adult (approx. 10 months old) male Wistar rats (Envigo, Inc, Indianapolis, IN) were used in the study. […] Subjects were double housed in polycarbonate cages (45×30×18 cm) with corncob bedding in a vivarium of constant temperature (21-23° C.) and humidity (40-50%). […] All behavioral testing was performed during the light portion (9 a.m.-5 p.m.) of the light/dark cycle (Monday thru Friday). Animals were cared for in accordance with the Guide for the Care and Use of Laboratory Animals (U.S. National Institutes of Health) and the experimental protocols were approved by the Institutional Animal Care and Use Committee at Augusta University (Protocol #2010-0044).
The 5C-SRTT procedure (reviewed, Robbins, 2002. Psychopharmacology (Berl); 163(3-4):362-80) was conducted as we have described previously (Terry et al., 2014, Neurotoxicology and Teratology 44:18-29, 2014; Callahan et al., 2020, Neuropharmacology. August 15; 173:107994). […] Animals were trained in eight automated 5C-SRTT operant chambers (Med Associates, St. Albans, VT, USA), controlled by MedPC software (Med Associates). Briefly, each operant chamber was equipped with 5 apertures containing a photocell beam to detect nose pokes and a lamp (2.8 W) that could be illuminated randomly at varying durations. Food pellets (45 mg chow pellet, BioServ, Frenchtown, NJ, USA) were delivered automatically to a magazine, located on the opposite wall to the nose pokes, that was also equipped with a light that turned on to indicate that a pellet had been dispensed. The house-light remained on for the entire session unless an error or omission occurred. Training sessions began with the delivery of a food reward and retrieval triggered the first trial. […] Sessions ended when 40 minutes had lapsed or 100 trials had been completed.
For this study, subjects were re-trained 5 days per week until they re-established a stable performance criteria with a fixed (1.0 sec) stimulus duration and a fixed ITI (5 sec) of 70-75% accuracy, <20% omissions and completion of all 100 trials for 5 consecutive days. Upon meeting these performance criteria animals were trained for one additional week and two groups of subjects (N=12) were assembled and balanced according to their performance accuracy, specifically the % Hit evaluation, which takes into account correct responses as well as all incorrect responses including the number of omissions. […] The vSD version of the task increases the attentional load while the vITI increases impulsivity-like behavior. The following outcome measures and behavioral domains were assessed: % Hit and % correct=sustained attention; omissions=attention/motivation; premature responses=impulsivity; perseverative responses=compulsivity; timeout responses=cognitive inflexibility; magazine head entries=appetitive motivation and compulsivity-like behavior; response latencies=information processing speed and/or motivation. For the STD version of the task, the stimulus duration (SD) was fixed at 1.0 sec and the ITI was fixed at 5 sec. In the vSD version of the task the following stimulus durations were presented in a pseudorandom manner: 0.3, 0.6, and 0.9 sec. In the vITI version, 2.5, 5.0, and 10.0 sec ITIs were employed in a pseudorandom manner. […]

CYP2C19 = CYP2C19 (Homo sapiens, UniProt P33261)
CYP2D6 = CYP2D6 (Homo sapiens, UniProt P10635)
[1] = Group 1, 0.1 mg/kg, Drug Exp period, mean ± SEM
[2] = Group 1, 0.1 mg/kg, Post-Drug Exp (vehicle washout) period, mean ± SEM
[3] = Group 2, 0.3 mg/kg, Drug Exp period, mean ± SEM
[4] = Group 2, 0.3 mg/kg, Post-Drug Exp (vehicle washout) period, mean ± SEM

Chain of CYP2C19 (P33261 whole entry): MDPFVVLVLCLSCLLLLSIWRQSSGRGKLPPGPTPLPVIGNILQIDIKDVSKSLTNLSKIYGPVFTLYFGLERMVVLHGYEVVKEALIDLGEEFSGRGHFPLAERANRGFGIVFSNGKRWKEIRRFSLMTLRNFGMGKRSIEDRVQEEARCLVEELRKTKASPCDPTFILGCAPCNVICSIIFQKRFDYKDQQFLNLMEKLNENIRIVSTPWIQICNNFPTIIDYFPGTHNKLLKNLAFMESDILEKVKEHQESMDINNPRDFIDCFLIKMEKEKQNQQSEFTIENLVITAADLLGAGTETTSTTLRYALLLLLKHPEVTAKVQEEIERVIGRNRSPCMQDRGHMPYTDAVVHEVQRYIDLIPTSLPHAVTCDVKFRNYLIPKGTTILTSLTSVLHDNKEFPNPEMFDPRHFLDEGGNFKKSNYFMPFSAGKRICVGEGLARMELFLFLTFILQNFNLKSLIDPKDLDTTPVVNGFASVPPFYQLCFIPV
Chain of CYP2D6 (P10635 whole entry): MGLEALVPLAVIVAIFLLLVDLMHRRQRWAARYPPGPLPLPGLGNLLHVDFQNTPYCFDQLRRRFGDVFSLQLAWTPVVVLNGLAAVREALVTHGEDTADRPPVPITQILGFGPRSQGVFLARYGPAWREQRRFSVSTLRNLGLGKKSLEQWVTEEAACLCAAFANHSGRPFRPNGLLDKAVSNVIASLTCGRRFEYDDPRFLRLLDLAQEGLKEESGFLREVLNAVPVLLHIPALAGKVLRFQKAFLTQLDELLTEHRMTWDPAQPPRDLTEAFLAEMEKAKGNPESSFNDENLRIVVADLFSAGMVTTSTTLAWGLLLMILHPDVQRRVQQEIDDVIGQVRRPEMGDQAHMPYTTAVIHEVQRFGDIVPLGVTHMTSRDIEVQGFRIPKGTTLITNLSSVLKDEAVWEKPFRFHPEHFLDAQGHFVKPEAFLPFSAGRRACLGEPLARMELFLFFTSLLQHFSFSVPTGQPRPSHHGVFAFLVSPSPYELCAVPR
Chain of CYP3A4 (P08684 whole entry): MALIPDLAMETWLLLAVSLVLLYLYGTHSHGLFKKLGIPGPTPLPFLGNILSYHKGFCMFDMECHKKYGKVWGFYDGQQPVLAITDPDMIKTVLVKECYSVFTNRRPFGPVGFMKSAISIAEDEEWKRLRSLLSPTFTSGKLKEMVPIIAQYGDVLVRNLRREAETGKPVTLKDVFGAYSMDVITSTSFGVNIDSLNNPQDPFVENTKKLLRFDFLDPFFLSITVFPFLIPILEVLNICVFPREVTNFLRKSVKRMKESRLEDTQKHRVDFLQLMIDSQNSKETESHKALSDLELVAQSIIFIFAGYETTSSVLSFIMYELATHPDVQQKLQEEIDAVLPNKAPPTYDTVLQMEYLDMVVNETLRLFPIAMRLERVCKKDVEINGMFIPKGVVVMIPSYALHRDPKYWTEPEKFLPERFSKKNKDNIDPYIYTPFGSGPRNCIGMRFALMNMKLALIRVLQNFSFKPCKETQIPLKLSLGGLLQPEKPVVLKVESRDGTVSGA

OC1(c2ccc(Cl)cc2)c2ccccc2C2=NCCN21 (stereo not shown) [Compound A, 5-(4-chlorophenyl)-2,3-dihydroimidazo[1,2-b]isoindol-5-ol, reference compound]
inhibition at 50 µM (CYP1A2): 13.7%
inhibition at 10 µM (CYP3A4; 3A4, Midazolam): 11.7%
inhibition at 10 µM (CYP3A4; 3A4, Testosterone): 14%

Clc1ccc(C2(OCC3OCCO3)c3ccccc3C3=NCCN32)cc1 (stereo not shown) [Compound I-19]
Latency (Correct) (Wistar rats; [1]): 0.94
Latency (Incorrect) (Wistar rats; [1]): 2.15
Magazine Head Entries (Wistar rats; [1]): 150.65 ± 9.46
Omissions (Wistar rats; [1]): 9.43
Reward Latency (Wistar rats; [1]): 3.53
Trials Completed (Wistar rats; [1]): 96.99 ± 2.12
Latency (Correct) (Wistar rats; [2]): 0.87 ± 0.03
Latency (Incorrect) (Wistar rats; [2]): 1.86 ± 0.09
Magazine Head Entries (Wistar rats; [2]): 168.06 ± 13.60
Omissions (Wistar rats; [2]): 4.46 ± 0.81
Reward Latency (Wistar rats; [2]): 2.64
Trials Completed (Wistar rats; [2]): 97.65 ± 2.23
Latency (Correct) (Wistar rats; [3]): 0.92
Latency (Incorrect) (Wistar rats; [3]): 2.28
Magazine Head Entries (Wistar rats; [3]): 183.89 ± 32.19
Omissions (Wistar rats; [3]): 8.10 ± 2.32^+
Reward Latency (Wistar rats; [3]): 4.08
Trials Completed (Wistar rats; [3]): 98.44 ± 0.95
Latency (Correct) (Wistar rats; [4]): 0.78
Latency (Incorrect) (Wistar rats; [4]): 1.61 ± 0.07
Magazine Head Entries (Wistar rats; [4]): 211.72 ± 32.77
Omissions (Wistar rats; [4]): 3.26 ± 0.95
Reward Latency (Wistar rats; [4]): 2.27
Trials Completed (Wistar rats; [4]): 100.00
% Hit and % correct (Wistar rats; repeated 0.1 and 0.3 mg/kg IP): did not significantly affect either the % Hit or the % correct
premature responses (Wistar rats; repeated 0.1 and 0.3 mg/kg IP): reduced the number of premature responses compared to pre- and post-drug conditions
Omissions (Wistar rats; repeated 0.1 and 0.3 mg/kg IP, vSD and vITI versions): modest increases in the number of omissions
Inhibition at Highest Test Article Concentration (CYP2C19; 2C19, Mephenytoin, at 50 μM): 83.2 at 50 μM %
IC50 (CYP2C19; microsomes): 17.3 µM
Inhibition at Highest Test Article Concentration (CYP2D6; 2D6, Dextromethorphan, at 50 μM): 84.3 at 50 μM %
IC50 (CYP2D6; microsomes): 8.7 µM
